pEC50, pIC50: −log10 of the molar value. “And” between values parts separate entries of the source, which are not always exact repeats. Equal entries are not always repeated. The source made the active and inactive calls.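 Rule for the calls: active = compounds giving half or more protection of infected cells from virus-caused growth loss, again on retest; inactive = the rest.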
System: CEM cells HIV-1 protection, formazan growth assay
Assay: NCI AIDS Antiviral Assay
Settings: for pIC50: measured here: growth of uninfected CEM cells
Summary of the method: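 CEM (human) cells, HIV-1 infected vs uninfected, 5-point dosing, formazan growth read-out. Retest threshold 50% protection.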

SMILES	pEC50	pIC50	outcome
CCN(CC)CCCC(C)Nc1c2ccc(Cl)cc2nc2c(Cl)cc(Cl)cc12 (stereo unspecified)	< 3.70	5.10	–
Cc1cc(N(CCC#N)S(=O)(=O)c2ccccc2)ccc1C=Nc1cccc(C(=O)O)c1	< 3.82	< 3.82	–
CCC1(OC(=O)CNC)C(=O)OCc2c1cc1n(c2=O)Cc2cc3ccccc3nc2-1 (stereo unspecified)	< 5.00	8.01	–
CS(=O)(=O)OCCN(CCOS(C)(=O)=O)c1ccc(C=Nc2ccc3oc(=O)ccc3c2)cc1	< 3.87	5.99	–
CCOC(=O)[C@H]1Nc2ccc(Cl)cc2[C@H]2OCC[C@@H]12	< 3.75	< 3.75	–
CCCCc1ccc(Nc2nc(N)c3[nH]cnc3n2)cc1	< 3.70	4.61	–
O=C1C(=O)c2ccccc2C(O)=C1Nc1ccc(Cl)cc1	–	–	inactive
Nc1c2ccccc2nc2nccnc12	< 4.58	< 4.58	–
COc1ccc(NC(=S)N/N=C\c2ccc(NC(C)=O)cc2)cc1	–	–	inactive
COc1ccc(C(=O)NO)cc1	< 3.70	4.60	–
O=C(c1ccccc1)[C@H]1Nc2cnccc2C2c3ccccc3CC21 (stereo partly specified)	< 4.51	< 4.51	–
CC1(C)C(=O)N=C(N)N1C(=O)OCc1ccccc1	< 3.70	< 3.70	–
O=C(C=Nc1ccccc1S)c1ccco1	–	–	inactive
CCN(CC)CCn1c2cc3c(cc2c(=O)c2cccnc21)OCCO3	< 3.70	5.18	–
S=C(Nc1ccccc1)Nc1[nH]c(=S)sc1-c1nc2ccccc2[nH]1	< 5.73	< 5.73	–
CCN(CC)CC(=O)Nc1ccc(C(=O)OCC(C)C)cc1	< 3.70	4.57	–
COC(=O)c1c2c(cc3c1CC1(Cc4cc5c(c(C=O)c4C1)CCC5)C3)CCC2 (stereo unspecified)	< 3.70	4.70	–
CCOC(=O)C1=C(C)Nc2ccccc2S1	–	–	inactive
NC(N)=NCCCC(NC(=O)OCCCCCn1ccc(N)nc1=O)C(=O)O (stereo unspecified)	< 3.70	< 3.70	–
COC(=O)/C=C1\SC(OC)(N(C)c2ccccc2)N(C)C1=O (stereo unspecified)	< 3.81	3.84	–
CC(=O)NCC1OC2COC(c3ccccc3)OC2C2N=C(c3ccccc3)OC12 (stereo unspecified)	–	–	inactive
COC(=O)[C@@]12CC[C@]1(C(=O)OC)C1C(C)=CC(=O)O[C@@]12C (stereo partly specified)	< 3.70	< 3.70	–

SMILES	pEC50	pIC50	outcome
COc1ccc(N2C(=O)C3c4[nH]c5cc(C)ccc5c4C4CCC(C(C)(C)C)CC4C3C2=O)cc1 (stereo unspecified)	< 3.70	3.98	–
NC(CS)C(=O)NCCNCCNc1ccc(NCCNCCNC(=O)C(N)CS)c2c1C(=O)c1c(O)ccc(O)c1C2=O (stereo unspecified)	< 3.70	4.87	–
Cc1nc2cc(F)c(F)cc2[nH]c1=O	< 3.70	3.76	–
CC(/C=C/c1ncccc1OCCCCCC(=O)O)=N\NC1=NCCN1	< 4.16	< 4.16	–
CCOP(=O)(OCC)/C(C#N)=C/c1ccnc2ccccc12	< 3.70	4.95	–
ClC1=NN=C(c2c[nH]c3ccccc23)CC1NCc1ccccc1 (stereo unspecified)	< 3.70	< 3.70	–
CCO/N=C\c1c2c(O)c3c(O)c(C)c4c(c3c1O)C(=O)C(C)(O/C=C\C(OC)C(C)C(OC(C)=O)C(C)C(O)C(C)C(O)C(C)/C=C\C=C(\C)C(=O)N2)O4 (stereo unspecified)	< 3.82	5.09	–
CN(C)C(=S)SSSC(=S)N(C)C	< 4.70	6.29	–
CC(C)C[C@H]1[C@@H](OCc2ccccc2)COS(=O)N1[C@H](C)c1ccccc1 (stereo partly specified)	< 3.70	5.02	–
CN1C(=O)N(C)C2SC(=NCc3ccccc3)NN2C1=O (stereo unspecified)	< 4.07	4.09	–
COc1cc(/C=C/C(=O)OC[C@H](Br)[C@H](OC(C)=O)c2ccc3c(c2)OCO3)cc(OC)c1OC	< 3.70	4.32	–
CSc1ccc(NC(=O)Nc2cccc(C)n2)cc1	< 3.70	< 3.70	–
COc1ccc2c(c1)C(=O)CC=C(C(=O)O)N2	< 3.70	< 3.70	–
S=c1sc(-c2ccc(Cl)cc2)nn1CSc1nc2ccccc2[nH]1	< 3.70	4.50	–
CCC(=O)O[C@H](C)CC1SCCCS1	< 3.67	< 3.67	–
CC(C)N(C(=O)C12C3C4C1C1C2C3C41C(=O)N(C(C)C)C(C)C)C(C)C (stereo unspecified)	< 4.14	< 4.14	–
O=C(NCc1ccncc1)C1COc2cc(-c3cc(=O)c4ccccc4o3)ccc2O1 (stereo unspecified)	–	–	inactive
CN(C)/N=C1\CC(c2ccccc2)C(C#N)(C#N)C1(C#N)C#N (stereo unspecified)	< 3.70	5.25	–
Nn1c(=O)n2n(c1=O)C1CCC2C1	< 3.70	< 3.70	–
COc1ccc(/C=C/C(=O)Oc2cc(O)cc(O)c2)cc1	< 3.70	5.34	–
O=C(NC(Cl)(C(F)(F)F)C(F)(F)F)c1ccc(F)cc1	< 3.70	< 3.70	–
CC(=O)OC1C(O)COC(O[C@H]2CC[C@]34C[C@]35CC[C@]3(C)C([C@@]6(C)CC[C@@H](C(C)(C)O)O6)[C@@H](O)C[C@@]3(C)C5C[C@H](OC3OCC(O)C(O)C3O)[C@H]4C2(C)C)C1OC1OCC(O)C(O)C1O (stereo partly specified)	< 3.70	< 3.70	–

SMILES	pEC50	pIC50	outcome
COc1cc(N(C)C)ccc1/C=C\c1ccnc2ccccc12	< 3.70	4.87	–
CCN(CC)c1c(C)nnc2c(C)c(-c3ccccc3)nn12	< 5.45	< 5.45	–
CCC/C(Cl)=N/OC(=O)Nc1cc(C(F)(F)F)ccc1OC	< 3.70	5.47	–
COC1=C(C(c2cc(OC)c(OC)c(OC)c2)c2cc3c(cc2OC)OCO3)C(=O)OC1 (stereo unspecified)	< 3.70	4.98	–
COC1=NC2=NC(OC)=NC3=C(Br)C=C(Br)C(=N1)N23	< 5.01	< 5.01	–
O=C(NCc1ccccc1)c1cc2ccc(O)c(O)c2cn1	< 4.00	5.77 and < 5.20	–
CC(C)(C)C#CI1OC(=O)c2ccccc21	< 3.70	5.67	–
CN(C)P1(=S)NCC(C(C)(C)C)CO1 (stereo unspecified)	< 3.98	< 3.98	–
C/C(=N\NC(=O)c1ccncc1)c1cccc(F)c1	< 3.71	< 3.71	–
COc1ccc(Br)c(CCCCC(=O)O)c1	–	–	inactive
CC(C)(C)c1cc(C(P(=O)(O)O)P(=O)(O)O)cc(C(C)(C)C)c1O	< 3.28	3.48	–
COc1cc([N+](=O)[O-])cc2c1NC(=O)C2(C)SC (stereo unspecified)	< 3.70	4.51	–
Cc1cc(CN(Cc2ccccc2)Cc2nc3ccccc3[nH]2)c(O)c(CN(Cc2nc3ccccc3[nH]2)Cc2nc3ccccc3[nH]2)c1	< 3.70	4.61	–
CCOC(=O)c1cnccc1CC1(C#N)c2ccccc2C=CN1C(=O)c1ccccc1 (stereo unspecified)	< 3.70	4.75	–
CCCCCc1nnc2n1N=C(c1ccc(Cl)cc1)CS2	< 3.70	< 3.70	–
O=c1c2ccccc2n2nnc3cccc1c32	< 4.63	< 4.63	–
COc1ccc(N2C(=O)CC(C3CC(C(C)(C)C)CCC3=O)C2=O)cc1 (stereo unspecified)	< 3.70	< 3.70	–
CC[C@](O)(CC(=O)O[C@H]1C(=O)O[C@@H]2C[C@H]3C(C)=CC(=O)[C@@H](O)[C@]3(C)[C@H]3[C@@]4(O)OC[C@]32[C@@H]1[C@@H](C)[C@H]4O)C(C)C	< 6.70	8.44	–
O=C(/C=C\c1ccc(Cl)c(Cl)c1)c1ccc(Cl)cc1Cl	< 4.84	< 4.84	–
Nc1c2ccccc2nc2ccc(C(=O)Nc3ccc(S(N)(=O)=O)cc3)cc12	< 3.70	< 3.70	–

Reference: PubChem BioAssay AID179 (DTP/NCI, 2004)
